Legend:
5HT1 BR = target: T1, 5HT1 BR (Mus musculus, UniProt P28334); experiment: Wound closure with topical 5HT1 BR agonist, with or without 5HT1 BR antagonist; assay type: in vivo, mice; settings: for size of the wound: 6 days post injury, control 15.09±2.3
T1 construct: from tissue; host or cells: live mice, skin wound (in vivo)
Description: Mice were treated with another 5HT1 BR agonist (CP 94253) directly on the wound (topic administration) at a concentration of 0.5 μmol, 12 h after a wound injury.
No pretreatment was performed on this set of experiments and the drug was administered once a day for the totality of the duration of the wound closure. Controls group received PBS topically only, once a day for the total duration of the treatment.

[1] = test system: hair and hair follicle of mice; experiment: Hair and skin measurements after treatment without shaving; assay type: in vivo; settings: no shaving; for hair size: per os fluoxetine 18 mg/kg 6 weeks, vortioxetine 20 mg/kg 12 days; for hair follicle length / skin thickness: per os
Description: (§1) All procedures in this study were approved by the Animal Care and Use committee at the Institut Pasteur (CETEA 2016-0007). Unless specified, 6 weeks old male mice C57Bl/6Rj were used in this study and housed on a 12:12 light/dark cycle in a pathogen free facility with controlled temperature and humidity. Food and drink were given ad libitum. Fluoxetine was dissolved in 0.9% NaCl and delivered either by intra peritoneal injections or per os at 18 mg/Kg. Control group received daily injections of 0.9% NaCl. For vortioxetine mice also received the product either dissolved in 96% Ethanol and then diluted 1/200 in water ad libitum at 20 mg/kg or dissolved in 96% Ethanol and then diluted 1/200 in 0.9% NaCl, final concentration 20 mg/kg body weight corrected. For topical applications vortioxetine was dissolved in 0.9% Nacl and directly applied in the wound the 3 first days and then on top on the wound the following days, every day.
To study the possible effect of fluoxetine and vortioxetine on hair growth, fluoxetine (at 18 mg/kg) or vortioxetine (at 20 mg/kg) was provided per os to mice for 6 weeks and 12 days, respectively. […] However, when the hairs were challenged with shaving or depilation, a faster growth of hairs was observed

[2] = test system: hair growth of shaved mice; experiment: Hair growth after shaving (clippers) or depilation (wax); assay type: in vivo; settings: for hair regeneration after shaving: 5 and 10 days after shaving; for hair growth, differences between the groups: 24 days after shaving; for growth of hairs in both protocols (clippers, wax): after shaving or depilation
Description: 2 different protocols were used to remove the hair from the mice. Mice were anesthetized using Isoflurane, initially in an induction chamber. The anaesthetised mice were transferred to the anaesthetic nose-cone and maintained on a heated block throughout the procedure (typically for about 5 minutes). In protocol 1, shaving was performed by cutting the hair: the mice were gently restrained manually and half of their back was shaved with portable electric hair clippers. In protocol 2, some hair was firstly removed with forceps and wax was used to unstack the hair. The wax was applied twice for maximum efficiency.
The skin color of the mouse skin was measured three times in 5 different locations of the shaved skin randomly and averaged within a 16×16 mm2 field, using ImageJ. The luminance measured reflects the relative darkness ranging from white (0) to black (1 0 0).
In order to study the influence of fluoxetine or vortioxetine on hair growth after a stress 2 different protocols were used on the same mouse. The half right part of the mouse back was shaved by cutting the hair with hairs clippers, and, in parallel, the hairs were removed using wax to unstack the hairs on the left part of the back (FIG. 4G). […] This was still true 10 days after shaving with longer hairs in the treated animals compared with placebo (FIG. 4J,M,N). […] These observations are in favor of a faster growth and faster regeneration but not bigger or longer hairs.

[3] = test system: 8 mm biopsy wound of the skin in C57Bl/6 mice; experiment: Histological analysis of the wound (H&E, re-epithelization, Ki67 immunostaining); assay type: in vivo; settings: for cell infiltration in the dermis vs placebo / number of Ki67+ cells (proliferating cells) in the wound vs placebo / open wounded area vs placebo (H&E): 5 days post injury; for number of cycling cells vs placebo: 14 days post injury; for number of vessels: at the time of the biopsy (T0), H&E, per os treatment, placebo 4.8±1.3; for length of the epithelial tongues vs placebo: day 5 after injury; for distances between the tips of the epithelial tongues vs placebo: day 5 after wounding
Description: Width of the wound and distance of the traversed epithelium were measured on H&E.
Percent of re-epithelization was calculated according to the following formula: [distance covered by epithelium]/[distance between wound bed]×100.
The extent of epithelialization and granulation tissue formation was determined on H&E-stained paraffin tissue sections. The length of the epithelial tongue was determined as the distance that the neo-epithelium had migrated from the margin of the wound as defined by the presence of hair follicles in non-wounded skin.
Immunostaining was performed on formol fixed sections. Permeabilized with 0.5% Triton X-100 20 min at room temperature, washed, and blocked with 10% BSA for 30 min. Sections were incubated with primary antibodies overnight at 4° C. and with Alexa-conjugated secondary antibodies 1/250 and Hoechst for 45 minutes. Sections were then analysed using an automated axioscan (Zeiss) or inverted Observer.Z1 Apotome (Zeiss).
To further characterize the wound closure, histological analysis was performed at the time of the biopsy (T0), 5 days post injury and 14 days post injury.

[4] = test system: 8 mm biopsy wound of the skin in C57Bl/6 mice; experiment: Wound healing after 8 mm skin biopsy, per os treatment, macroscopic wound size; assay type: in vivo; settings: for wound in average smaller than placebo: between the 4th and the 14th day post-injury; for size of the wound vs placebo in the course of wound closure: until 16 days post injury
Description: as §1
(§2) Mice were anesthetized using Isoflurane, initially in an induction chamber. The anaesthetised mice were transferred to the anaesthetic nose-cone and maintained on a heated block throughout the procedure (typically for about 5 minutes). Analgesic was administered by subcutaneous injection e.g. buprenorphine 1.5 μl of […] solution, diluted in 30 μl sterile water. The area of the biopsy was shaved. Then an area of dorsal skin was rendered sterile by swabbing with Videne surgical scrub followed by sterile water. A 8 mm sterile punch biopsy was used to create an incision through the epidermis/dermis to the muscle fascia. Any bleeding at this step was carefully avoided. The punch biopsy was removed and the skin separated from muscle connective tissues using forceps or blunted scissors. Mice were then removed from the anesthetic nose-cone and housed in sterilised cages containing paper liner and paper bedding. They were kept warm (using a cage placed on a heated mat) until fully recovered from the effects of the anaesthetic.
In order to assess the regenerative potential of the skin, a 8 mm biopsy of the skin was performed in C57Bl/6 mice, which were either treated per os with fluoxetine at 18 mg/kg or with vortioxetine at 20 mg/kg for 6 weeks and 12 days respectively (FIG. 1A) and during the healing process.

hair growth in patients = settings: about 100 patients, cited from earlier work
[5] = test system: 8 mm biopsy wound of the skin in C57Bl/6 mice; experiment: Wound healing after 8 mm skin biopsy, topical application without pre-treatment; assay type: in vivo
Description: as §1, §2
To further confirm the data, the same protocol was performed on C57Bl/6 mice wounded with 8 mm biopsy, but this time the mice were not pre-treated and received topical (300 μl) applications of vortioxetine at a concentration of 20 mg/ml diluted in 96% ethanol. The placebo received the same amount of 96% ethanol. […] Six days post injury, the size of the wound was smaller in the animals topically treated with vortioxetine (FIG. 1L). Eight days post injury, the size of the wound was 10 times lower than the placebo (FIG. 1L).

[6] = first 24 hours, per os fluoxetine 18 mg/kg 6 weeks or vortioxetine 20 mg/kg 12 days pre-treatment and during healing
[7] = six days post injury, per os, placebo 15.67
[8] = sixteen days post injury, per os
[9] = sixteen days post injury, per os, placebo 0.5

T1 sequence (P28334 whole entry): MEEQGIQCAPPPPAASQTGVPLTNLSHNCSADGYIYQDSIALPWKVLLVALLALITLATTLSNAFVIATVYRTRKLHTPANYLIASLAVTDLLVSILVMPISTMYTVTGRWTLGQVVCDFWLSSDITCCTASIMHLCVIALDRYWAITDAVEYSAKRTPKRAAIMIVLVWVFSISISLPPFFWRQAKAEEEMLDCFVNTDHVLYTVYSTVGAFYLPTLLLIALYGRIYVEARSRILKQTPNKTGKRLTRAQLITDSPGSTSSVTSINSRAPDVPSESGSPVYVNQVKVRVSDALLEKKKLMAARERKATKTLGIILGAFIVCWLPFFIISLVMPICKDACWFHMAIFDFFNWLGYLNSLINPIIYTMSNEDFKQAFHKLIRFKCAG

Structure (SMILES) | hair size [1] | hair follicle length [1] | skin thickness [1] | hair regeneration after shaving [2] | hair growth vs placebo ([2]; 5 days after shaving) | hair growth vs placebo ([2]; 10 days after shaving) | hair growth, differences between the groups [2] | growth of hairs in both protocols (clippers, wax) [2] | cell infiltration in the dermis vs placebo [3] | number of Ki67+ cells (proliferating cells) in the wound vs placebo [3] | open wounded area vs placebo (H&E) [3] | number of cycling cells vs placebo [3] | number of vessels [3] [vessels/mm^2] | length of the epithelial tongues vs placebo [3] | distances between the tips of the epithelial tongues vs placebo [3] | wound in average smaller than placebo [4] [%] | size of the wound vs placebo [4, 6] | size of the wound vs placebo ([4]; four days post injury, per os) | area of the wound [4, 7] [mm^2] | skin regeneration at the macroscopic level [4, 8] | other results
CCCOc1ccc2[nH]cc(C3=CCNCC3)c2n1 [CP 94253] | – | – | – | – | – | – | – | – | – | – | – | – | – | – | – | – | – | – | – | – | size of the wound (5HT1 BR; topical 0.5 μmol once a day from 12 h after injury, no pretreatment): 7.7±2.5
COc1ccc(NC(=O)c2ccc(-c3ccc(-c4noc(C)n4)cc3C)cc2)cc1N1CCN(C)CC1 [GR127935] | – | – | – | – | – | – | – | – | – | – | – | – | – | – | – | – | – | – | – | – | size of the wound (5HT1 BR; antagonist by osmotic pumps at 4 mg/kg concomitant with topical agonist CP 94253): 10.3±3.1; effect of the antagonist on the positive effects of the agonist (5HT1 BR; osmotic pumps at 4 mg/kg, concomitant with CP 94253): blocked partially
CNCCC(Oc1ccc(C(F)(F)F)cc1)c1ccccc1 (stereo not drawn) [fluoxetine] | No differences | No differences | did not change | more advanced, faster regeneration of the hairs | More advanced hair growth | longer hairs | no differences | faster growth | more cells | higher | smaller | No differences | 8.2±2.7 | significantly increased | significantly shorter | 27 | No difference | smaller | 11.48 | virtually completely regenerated | area of the wound [4, 9]: 0.05 mm^2; size of the wound vs placebo ([4]; two days post injury, per os): smaller; size of the wound vs placebo in the course of wound closure ([4]; per os): constantly smaller
CCOC(=O)c1ccnc(C(=O)OCC)c1 [stemoxydin] | – | – | – | – | – | – | – | – | – | – | – | – | – | – | – | – | – | – | – | – | new hairs compared to the normal average of 50 to 100 new hairs growing every day (hair growth in patients; 90 days): 4%; average new hairs (hair growth in patients; in 90 days): 1500 new hairs
Cc1ccc(Sc2ccccc2N2CCNCC2)c(C)c1 [vortioxetine, 1-[2-(2,4-Dimethylphenylsulfanyl)phenyl]piperazine] | No differences | No differences | did not change | more advanced, faster regeneration of the hairs | More advanced hair growth | longer hairs | no differences | faster growth | more cells | higher | smaller | No differences | 8.7±3.5 | significantly increased | significantly shorter | 35 | No difference | smaller | 10.10 | virtually completely regenerated | sizes of the wounds vs placebo ([5]; T0 to 4 days post injury, topical 300 μl of 20 mg/ml, no pre-treatment): No differences; size of the wound relative to placebo ([5]; eight days post injury, topical): 10 times lower than the placebo; size of the wound vs placebo ([5]; six days post injury, topical): smaller; wound closure ([5]; sixteen days post injury, topical, placebo 0.20 mm^2): virtually completely closed; area of the wound [4, 9]: 0.05 mm^2; size of the wound vs placebo in the course of wound closure ([4]; per os): constantly smaller
